Assay results as given in patent publication US20110092367A1, “Herbicidal Compositions Comprising 4-amino-3,6-dichloropyridine-2-carboxylic Acid” (BASF SE, priority 2008, published 2011).

Experiments:
Format in all cases: in vivo
Matricaria inodora [1] = assay: Greenhouse trial, post-emergence: MATIN; details: post-emergence (Tables 7-9)
Protocol: (§1) The test plants have been seeded, separately for each species, in plastic containers in sandy loamy soil containing 5% organic matter.
(§2) For the post emergence treatment, the plants were first grown to the 2 leaf station (GS 12). Here, the herbicidal compositions were suspended or emulsified in water as distribution medium and sprayed using finely distributing nozzels.
(§3) The plants have been cultivated due to there individual requirements at 10-25° C. and 20-35° C. The plants were irrigated due to there necessity. […]
(§4) The evaluation for the damage on undesired weeds caused by the chemical compositions was carried out using a scale from 0 to 100%, compared to the untreated control plants. Here, 0 means no damage and 100 means complete destruction of the plants.
(§5) Calculation of expected activity of binary mixtures was done by using the Colby-Formula according to Example 1.

Alopecurus myosuroides = assay: Field trial Example 2, combined application: ALOMY; details: Aminopyralid 7.5 g ai/ha solo, 28 DAT
Protocol: (§6) Aminiopyralid was used as commercial aquaeous solution having an active ingredient concentration of 240 g/l (Milestone™). Metazachlor was used as a commercial suspension concentrate having an active ingredient concentration of 500 g/l (Butisan S®).
as §4
(§7) The value E, which is to be expected if the activity of the individual compounds is just additive, was calculated using the method of S. R. Colby (1967) “Calculating synergistic and antagonistic responses of herbicide combinations”, Weeds 15, p. 22 ff.
(§8) The performance of aminopyralid, applied as an alone treatment at […] and 15 g ai/ha, and the performance of metazachlor, applied as an alone treatment at 375 and 500 g ai/ha, as well as the mixtures of the both compounds have been assessed in winter oilseed rape field trials. The trials have been conducted in Germany at two locations.
(§9) Post emergence treatment was applied by means of fine distributed nozzels at the growth stage (GS/BBCH 11/12).

Sinapis alba = assay: Field trial Example 1, successive application: damage on SINAL; details: DAT 25/DALT 10
Description: as §6
(§10) The performance of aminopyralid applied as an alone treatment at 15, 30 and 50 g a.i./ha applied as an early post emergence treatment and an post emergence treatment in comparison to two different applications including metazachlor at 500 g a.i./ha as an early post emergence application in succession of aminopyralid as a post emergence application at 15 and 30 g a.i./ha was assessed in an oilseed rape field trials.
(§11) The early post emergence treatment was applied by means of fine distributed nozzles at the growth stage (GS) of the crop BBCH 11-12.
(§12) The post emergence treatment was applied by means of fine distributed nozzles at the growth stage (GS) of the crop BBCH 13-14.
(§13) The test period extended over the autumn and spring season (205 days).
(§14) In the following experiments, the herbicidal activity for the individual herbicide compounds (solo application) and of the herbicidal succession was assessed 4 times:
as §4

Stellaria media [2] = assay: Field trial Example 2, combined application: STEME; details: Aminopyralid 7.5 g ai/ha solo, 28 DAT
Protocol: as §6, §4, §7, §8, §9

Lamium purpureum = assay: Greenhouse trial, post-emergence: LAMPU; details: for % activity 28 DAT: LAMPU
Protocol: as §1, §2, §3, §4, §5

Matricaria chamomilla = assay: Greenhouse trial, post-emergence: MATCH; details: read-out: % activity, MATCH
Protocol: as §1, §2
The plants have been cultivated due to there individual requirements at 10-25° C. and 20-35° C. The plants were irrigated due to there necessity.
In the following experiments, the herbicidal activity for the individual herbicide compounds (solo and mixture applications), the herbicidal succession was assessed 14 days after treatment (DAT).
as §4, §5
E=(X+Y+Z)−(X*Y+X*Z+Y*Z/100)+(X*Y*Z/1000)
Tables 6 to 10 relate to the herbicidal activity, in greenhouse trials, of the individual actives and the combination in post-emergence application 14 DAT.

Matricaria inodora [3] = assay: Field trial Example 1, successive application: damage on MATIN
Description: as §6, §10, §11, §12, §13, §14, §4

Anthemis arvensis [4] = assay: Field trial Example 1, successive application: damage on ANTAR
Description: as §6, §10, §11, §12, §13, §14, §4

Stellaria media [5] = assay: Greenhouse trial, post-emergence: STEME; details: post-emergence (Tables 7-9)
Protocol: as §1, §2, §3, §4, §5

Papaver rhoeas = assay: Greenhouse trial, post-emergence: PAPRH; details: aminopyralid 10 g ai/ha solo
Protocol: as §1, §2, §3, §4, §5

Anthemis arvensis [6] = assay: Field trial Example 2, combined application: ANTAR
Protocol: as §6, §4, §7, §8, §9

[7] = Lamium purpureum, post-emergence, 672 h, read-out: % activity 28 DAT, LAMPU
[8] = 15 g ai/ha, treatment A early post emergence, DAT 25/DALT 10
[9] = 15 g ai/ha, treatment A early post emergence, DAT 65/DALT 50
[10] = 15 g ai/ha, treatment A early post emergence, DAT 176/DALT 161
[11] = 15 g ai/ha, treatment B post emergence, DAT 25/DALT 10
[12] = 15 g ai/ha, treatment B post emergence, DAT 65/DALT 50
[13] = 15 g ai/ha, treatment B post emergence, DAT 176/DALT 161
[14] = 30 g ai/ha, treatment A early post emergence, DAT 25/DALT 10
[15] = 30 g ai/ha, treatment A early post emergence, DAT 65/DALT 50
[16] = 30 g ai/ha, treatment A early post emergence, DAT 176/DALT 161
[17] = 30 g ai/ha, treatment B post emergence, DAT 25/DALT 10
[18] = 30 g ai/ha, treatment B post emergence, DAT 65/DALT 50
[19] = 30 g ai/ha, treatment B post emergence, DAT 176/DALT 161
[20] = 50 g ai/ha, treatment A early post emergence, DAT 25/DALT 10
[21] = 50 g ai/ha, treatment A early post emergence, DAT 65/DALT 50
[22] = 50 g ai/ha, treatment A early post emergence, DAT 176/DALT 161
[23] = 50 g ai/ha, treatment B post emergence, DAT 25/DALT 10
[24] = 50 g ai/ha, treatment B post emergence, DAT 65/DALT 50
[25] = 50 g ai/ha, treatment B post emergence, DAT 176/DALT 161
[26] = aminopyralid 15 g ai/ha, treatment A, DAT 205/DALT 190
[27] = aminopyralid 15 g ai/ha, treatment B, DAT 205/DALT 190
[28] = aminopyralid 30 g ai/ha, treatment A, DAT 205/DALT 190
[29] = aminopyralid 30 g ai/ha, treatment B, DAT 205/DALT 190
[30] = aminopyralid 50 g ai/ha, treatment A, DAT 205/DALT 190
[31] = aminopyralid 50 g ai/ha, treatment B, DAT 205/DALT 190

Structure (SMILES): Nc1cc(Cl)nc(C(=O)O)c1Cl [aminopyralid, 4-amino-3,6-dichloropyridine-2-carboxylic acid]
- % activity 28 DAT (Matricaria inodora [1]; aminopyralid 5 g ai/ha solo): 35%
- % activity 28 DAT (Matricaria inodora [1]; aminopyralid 10 g ai/ha solo): 80%
- % activity (Alopecurus myosuroides): 60%
- damage on SINAL (Sinapis alba; 15 g ai/ha, treatment A early post emergence): 13%
- damage on SINAL (Sinapis alba; 15 g ai/ha, treatment B post emergence): 0%
- damage on SINAL (Sinapis alba; 30 g ai/ha, treatment A early post emergence): 50%
- damage on SINAL (Sinapis alba; 30 g ai/ha, treatment B post emergence): 0%
- damage on SINAL (Sinapis alba; 50 g ai/ha, treatment A early post emergence): 67%
- damage on SINAL (Sinapis alba; 50 g ai/ha, treatment B post emergence): 0%
- % activity (Stellaria media [2]): 75%
- % activity 28 DAT (Lamium purpureum; aminopyralid 5 g ai/ha solo, post-emergence (Table 10)): 20%
- % activity 28 DAT (Lamium purpureum; aminopyralid 5 g ai/ha solo, post-emergence (Tables 7-9)): 30%
- % activity 28 DAT (Lamium purpureum; aminopyralid 10 g ai/ha solo, post-emergence (Table 10)): 30%
- % activity 28 DAT (Lamium purpureum; aminopyralid 10 g ai/ha solo, post-emergence (Tables 7-9)): 65%
- inhibition at 5 g/ha (Lamium purpureum; [7]): 20%
- inhibition at 10 g/ha (Lamium purpureum; [7]): 30%
- inhibition at 5 g/ha (Matricaria chamomilla): 75%
- inhibition at 10 g/ha (Matricaria chamomilla): 85%
- damage on MATIN (Matricaria inodora [3]; [8]): 97%
- damage on MATIN (Matricaria inodora [3]; [9]): 96%
- damage on MATIN (Matricaria inodora [3]; [10]): 100%
- damage on MATIN (Matricaria inodora [3]; [11]): 88%
- damage on MATIN (Matricaria inodora [3]; [12]): 88%
- damage on MATIN (Matricaria inodora [3]; [13]): 98%
- damage on MATIN (Matricaria inodora [3]; [14]): 100%
- damage on MATIN (Matricaria inodora [3]; [15]): 98%
- damage on MATIN (Matricaria inodora [3]; [16]): 100%
- damage on MATIN (Matricaria inodora [3]; [17]): 82%
- damage on MATIN (Matricaria inodora [3]; [18]): 91%
- damage on MATIN (Matricaria inodora [3]; [19]): 100%
- damage on MATIN (Matricaria inodora [3]; [20]): 100%
- damage on MATIN (Matricaria inodora [3]; [21]): 100%
- damage on MATIN (Matricaria inodora [3]; [22]): 100%
- damage on MATIN (Matricaria inodora [3]; [23]): 88%
- damage on MATIN (Matricaria inodora [3]; [24]): 94%
- damage on MATIN (Matricaria inodora [3]; [25]): 98%
- damage on MATIN (Matricaria inodora [3]; [26]): 100%
- damage on MATIN (Matricaria inodora [3]; [27]): 100%
- damage on MATIN (Matricaria inodora [3]; [28]): 100%
- damage on MATIN (Matricaria inodora [3]; [29]): 100%
- damage on MATIN (Matricaria inodora [3]; [30]): 100%
- damage on MATIN (Matricaria inodora [3]; [31]): 100%
- damage on ANTAR (Anthemis arvensis [4]; [8]): 97%
- damage on ANTAR (Anthemis arvensis [4]; [9]): 96%
- damage on ANTAR (Anthemis arvensis [4]; [10]): 100%
- damage on ANTAR (Anthemis arvensis [4]; [11]): 87%
- damage on ANTAR (Anthemis arvensis [4]; [12]): 87%
- damage on ANTAR (Anthemis arvensis [4]; [13]): 98%
- damage on ANTAR (Anthemis arvensis [4]; [14]): 100%
- damage on ANTAR (Anthemis arvensis [4]; [15]): 98%
- damage on ANTAR (Anthemis arvensis [4]; [16]): 100%
- damage on ANTAR (Anthemis arvensis [4]; [17]): 82%
- damage on ANTAR (Anthemis arvensis [4]; [18]): 91%
- damage on ANTAR (Anthemis arvensis [4]; [19]): 100%
- damage on ANTAR (Anthemis arvensis [4]; [20]): 100%
- damage on ANTAR (Anthemis arvensis [4]; [21]): 100%
- damage on ANTAR (Anthemis arvensis [4]; [22]): 100%
- damage on ANTAR (Anthemis arvensis [4]; [23]): 93%
- damage on ANTAR (Anthemis arvensis [4]; [24]): 94%
- damage on ANTAR (Anthemis arvensis [4]; [25]): 98%
- damage on ANTAR (Anthemis arvensis [4]; [26]): 100%
- damage on ANTAR (Anthemis arvensis [4]; [27]): 100%
- damage on ANTAR (Anthemis arvensis [4]; [28]): 100%
- damage on ANTAR (Anthemis arvensis [4]; [29]): 100%
- damage on ANTAR (Anthemis arvensis [4]; [30]): 100%
- damage on ANTAR (Anthemis arvensis [4]; [31]): 100%
- % activity 28 DAT (Stellaria media [5]; aminopyralid 5 g ai/ha solo): 35%
- % activity 28 DAT (Stellaria media [5]; aminopyralid 10 g ai/ha solo): 65%
- % activity 28 DAT (Papaver rhoeas; post-emergence (Table 10)): 95%
- % activity 28 DAT (Papaver rhoeas; post-emergence (Tables 7-9)): 35%
- % activity (Anthemis arvensis [6]; Aminopyralid 7.5 g ai/ha solo, 29 DAT): 77%
- % activity (Anthemis arvensis [6]; Aminopyralid 15 g ai/ha solo, 29 DAT): 94%
- % activity (Anthemis arvensis [6]; Aminopyralid 15 g ai/ha solo, 78 DAT): 96%
